Results: PubChem BioAssay (NCI)
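Grown in 96-well plates, cells were treated for 48 hours with each compound at five concentrations. Insufficient inhibition: endpoint recorded as highest concentration tested. TGI marks complete inhibition of growth.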

test system: SK-MEL-28 melanoma; assay: growth of human tumour cells (NCI), 48 h

O=c1[nH]c(Nc2nc3ccccc3[nH]2)nc2c1CCC2 and c1ccc2c(c1)nc1n2CNC1 cannot be ordered by TGI: greater than 100 µM for the first, greater than 100 µM for the second.

O=C1N[C@@H](c2c[nH]c3cc(Br)ccc23)C(=O)N[C@H]1c1c[nH]c2cc(Br)ccc12 and COc1ccccc1N1CCN(CCCN2/C(=C(\O)c3ccccc3)C(=O)c3c(C)cc(C)nc3S2(=O)=O)CC1 cannot be ordered by TGI: greater than 100 µM for the first, greater than 100 µM for the second.

Cc1ccc(C)c(COCCOCn2ccc(N)nc2=O)c1 and CSC1=N/C(=C\c2ccccc2)C(=O)N1CN1CCCCC1 cannot be ordered by TGI: greater than 100 µM for the first, greater than 100 µM for the second.

CCOP(=O)(O)C1C(CO)OC(n2ccc(=O)[nH]c2=O)C1O (stereo not drawn) and COC(=O)C1=C(C(=O)OC)c2cc(OC)ccc2C(C(=S)N(C)C)S1 (stereo not drawn) cannot be ordered by TGI: greater than 100 µM for the first, greater than 100 µM for the second.

O=C1NCCCNCCCNCCCNC(=O)c2cccc1n2 showed a TGI greater than 100 µM.

test system: TK-10 renal; assay: growth of human tumour cells (NCI), 48 h

Point of comparison: CC(C)=CC(=O)C[C@H]1C(=O)O[C@@H]2C[C@H]3C(C)=CC(=O)[C@@H](O)[C@]3(C)[C@H]3[C@@]4(O)OC[C@]32[C@@H]1[C@@H](C)[C@H]4O, TGI 0.512 µM. Against it:
- Cc1ccc(N=Nc2c(C)c(C#N)c(=S)n(C3OC(CO)C(O)C(O)C3O)c2C)cc1 (stereo not drawn) — higher, > 100 µM
- C=C(CC[C@@H](C)[C@H]1CC[C@@]2(C)C3=C(CC[C@]12C)[C@@]1(C)CC[C@H](O)[C@@H](C)C1CC3)C(C)C (stereo partly drawn) — 5-fold higher, 2.56 µM
- CC(=O)OCCOCn1cnc2c(Cl)nc(Cl)nc21 — higher, > 100 µM
- COc1ccc(N2C(=O)c3cc(C)cnc3S2(=O)=O)cc1 — higher, > 100 µM
- Cn1c(=O)c2[nH]c(CCCCC(=O)O)nc2n(C)c1=O — higher, > 100 µM
- Cc1cc(C)n(C2OC(CO)C(O)C(O)C2O)c(=S)c1C#N (stereo not drawn) — higher, > 100 µM
- Cc1ccc(-c2c3nc(c(-c4ccc(C)cc4)c4ccc([nH]4)c(-c4ccc(OCC5COC(C)(C)O5)cc4)c4nc(c(-c5ccc(C)cc5)c5ccc2[nH]5)C=C4)C=C3)cc1 (stereo not drawn) — higher, > 31.6 µM
- Cc1ccccc1N=Nc1ccc(N/N=C2/CCCNC2=O)c(C)c1 — higher, > 100 µM
- CCn1c2ccccc2n2c(=O)c3c(c(C#N)c12)CCCC3 — higher, > 100 µM
- CN(/N=C/c1ccc(OCc2cccc(COc3ccc(C=O)cc3)n2)cc1)c1cnn(-c2ccc(Cl)cc2Cl)c(=O)c1Cl — higher, > 100 µM
- CC12CCC([C@H](C(O)C3CCCCC3)C1=O)C2(C)C (stereo partly drawn) — higher, > 100 µM
- C=C1CC[C@H](O)C(C)(C)[C@@H]1CC/C(C)=C/CC/C=C(\C)CC/C=C(\C)CCC=C(C)C — higher, > 100 µM
- c1ccc(CSP234N5CCN2CCN3CCN4CC5)c(CSP234N5CCN2CCN3CCN4CC5)c1 — higher, > 100 µM
- COc1cc2c(cc1OC)CCc1cc(OC)c(OC)cc1CC2 — higher, > 100 µM
- COc1ccc(N2C(=O)C3ON(C(C(N)=O)c4ccccc4)C(c4cc5ccccc5c5ccccc45)C3C2=O)cc1 (stereo not drawn) — higher, > 50 µM
- O=c1[nH]c(Nc2nc3ccccc3[nH]2)nc2c1CCC2 — higher, > 100 µM
- O=C1N[C@@H](c2c[nH]c3cc(Br)ccc23)C(=O)N[C@H]1c1c[nH]c2cc(Br)ccc12 — higher, > 100 µM
- COc1ccccc1N1CCN(CCCN2/C(=C(\O)c3ccccc3)C(=O)c3c(C)cc(C)nc3S2(=O)=O)CC1 — higher, > 100 µM
- c1ccc2c(c1)nc1n2CNC1 — higher, > 100 µM
- Cc1ccc(C)c(COCCOCn2ccc(N)nc2=O)c1 — higher, > 100 µM
- CCOP(=O)(O)C1C(CO)OC(n2ccc(=O)[nH]c2=O)C1O (stereo not drawn) — higher, > 100 µM
- O=C1NCCCNCCCNCCCNC(=O)c2cccc1n2 — higher, > 100 µM
- CSC1=N/C(=C\c2ccccc2)C(=O)N1CN1CCCCC1 — higher, > 100 µM
- COC(=O)C1=C(C(=O)OC)c2cc(OC)ccc2C(C(=S)N(C)C)S1 (stereo not drawn) — higher, > 100 µM

test system: UO-31 renal; assay: growth of human tumour cells (NCI), 48 h

Point of comparison: C=C(CC[C@@H](C)[C@H]1CC[C@@]2(C)C3=C(CC[C@]12C)[C@@]1(C)CC[C@H](O)[C@@H](C)C1CC3)C(C)C (stereo partly drawn), TGI 2.35 µM. Against it:
- Cc1ccc(N=Nc2c(C)c(C#N)c(=S)n(C3OC(CO)C(O)C(O)C3O)c2C)cc1 (stereo not drawn) — 42-fold higher, 98.8 µM
- CC(=O)OCCOCn1cnc2c(Cl)nc(Cl)nc21 — 15-fold higher, 36.4 µM
- COc1ccc(N2C(=O)c3cc(C)cnc3S2(=O)=O)cc1 — higher, > 100 µM
- Cn1c(=O)c2[nH]c(CCCCC(=O)O)nc2n(C)c1=O — higher, > 100 µM
- Cc1cc(C)n(C2OC(CO)C(O)C(O)C2O)c(=S)c1C#N (stereo not drawn) — higher, > 100 µM
- Cc1ccc(-c2c3nc(c(-c4ccc(C)cc4)c4ccc([nH]4)c(-c4ccc(OCC5COC(C)(C)O5)cc4)c4nc(c(-c5ccc(C)cc5)c5ccc2[nH]5)C=C4)C=C3)cc1 (stereo not drawn) — higher, > 31.6 µM
- Cc1ccccc1N=Nc1ccc(N/N=C2/CCCNC2=O)c(C)c1 — higher, > 100 µM
- CCn1c2ccccc2n2c(=O)c3c(c(C#N)c12)CCCC3 — higher, > 100 µM
- CN(/N=C/c1ccc(OCc2cccc(COc3ccc(C=O)cc3)n2)cc1)c1cnn(-c2ccc(Cl)cc2Cl)c(=O)c1Cl — higher, > 100 µM
- CC12CCC([C@H](C(O)C3CCCCC3)C1=O)C2(C)C (stereo partly drawn) — higher, > 100 µM
- C=C1CC[C@H](O)C(C)(C)[C@@H]1CC/C(C)=C/CC/C=C(\C)CC/C=C(\C)CCC=C(C)C — higher, > 100 µM
- c1ccc(CSP234N5CCN2CCN3CCN4CC5)c(CSP234N5CCN2CCN3CCN4CC5)c1 — higher, > 100 µM
- COc1cc2c(cc1OC)CCc1cc(OC)c(OC)cc1CC2 — higher, > 100 µM
- COc1ccc(N2C(=O)C3ON(C(C(N)=O)c4ccccc4)C(c4cc5ccccc5c5ccccc45)C3C2=O)cc1 (stereo not drawn) — 15-fold higher, 34.5 µM
- O=c1[nH]c(Nc2nc3ccccc3[nH]2)nc2c1CCC2 — higher, > 100 µM
- O=C1N[C@@H](c2c[nH]c3cc(Br)ccc23)C(=O)N[C@H]1c1c[nH]c2cc(Br)ccc12 — higher, > 100 µM
- COc1ccccc1N1CCN(CCCN2/C(=C(\O)c3ccccc3)C(=O)c3c(C)cc(C)nc3S2(=O)=O)CC1 — higher, > 100 µM
- c1ccc2c(c1)nc1n2CNC1 — higher, > 100 µM
- Cc1ccc(C)c(COCCOCn2ccc(N)nc2=O)c1 — higher, > 100 µM
- CCOP(=O)(O)C1C(CO)OC(n2ccc(=O)[nH]c2=O)C1O (stereo not drawn) — higher, > 100 µM
- O=C1NCCCNCCCNCCCNC(=O)c2cccc1n2 — higher, > 100 µM
- CSC1=N/C(=C\c2ccccc2)C(=O)N1CN1CCCCC1 — higher, > 100 µM
- COC(=O)C1=C(C(=O)OC)c2cc(OC)ccc2C(C(=S)N(C)C)S1 (stereo not drawn) — higher, > 100 µM
